Experimental data as given in patent US12103914B2, “Compositions of biologically active menaquinol derivatives and methods of treatment” (Epizon Pharma, Inc., priority 2020, dated 2024).

Tested on: vascular calcification and tissue calcification in patient with moderate calciphylaxis
Test: Treatment of patients diagnosed with moderate calciphylaxis (case examples)
Format: in vivo, human
Description: This example describes the administration of the disclosed compounds to subjects diagnosed with calciphylaxis. Typical symptoms include presentation of characteristic painful skin lesions (Nigwekar et al. (2015) Calciphylaxis: Risk Factors, Diagnosis, and Treatment. Am. J. Kidney Dis. 66:133-46). Definitive diagnosis of calciphylaxis is achieved via skin biopsy. Further conditions need to be considered for correct diagnosis.
The dosage form is a 5 mg, 10 mg, 25 mg, 50 mg or 100 mg soft-gel capsule. Two 50 mg capsules are administered once daily to the 100 mg dosage cohort. […]

Substance | reduction in tissue calcification (45 kg patient, 20 mg, 10 weeks) | reduction in vascular calcification (suggested by change in examined biomarker levels) (45 kg patient, 20 mg, 10 weeks) | reduction in tissue calcification (65 kg patient, 100 mg, 8 weeks) | reduction in vascular calcification (suggested by change in examined biomarker levels) (65 kg patient, 100 mg, 8 weeks) | reduction in tissue calcification (70 kg patient, 50 mg, 3 months) | reduction in vascular calcification (suggested by change in examined biomarker levels) (70 kg patient, 50 mg, 3 months)
Calcium salt of Menaquinol-7 | 15% | ~20% | 10% | ~10% | – | –
Potassium salt of Menaquinol-7 | – | – | – | – | 20% | ~25%
